Patent US11203592B2, “Inhibitors of indoleamine 2,3-dioxygenase and methods of their use” (BRISTOL-MYERS SQUIBB COMPANY, priority 2017, dated 2021)
pIC50: −log10 of the molar value.

Legend:
[1] = target: T1, indoleamine 2,3-dioxygenase (IDO) (Homo sapiens, UniProt P14902); experiment: HeLa cell-based indoleamine 2,3-dioxygenase (IDO) assay, kynurenine production; settings: HeLa cells, IFNγ 25 ng/mL, 48 hour incubation, kynurenine absorbance at 480 nm
T1 construct: endogenous in cells; host or cells: HeLa (ATCC CCL-2), induced with IFNγ at 25 ng/mL
Procedure: Assessment of Inhibitor Activity in HeLa Cell-Based Indoleamine 2,3-dioxygenase (IDO) Assay:
HeLa (ATCC® CCL-2) cells were obtained from the ATCC® and cultured in Dulbecco's Modified Eagle Medium supplemented with 4.5 g/L glucose, […] (#10-013-CV, Corning), 2 mM L-alanyl-L-glutamine dipeptide (#35050-061, Gibco), 100U/mL penicillin, 100 μg/mL streptomycin (#SV30010, HyClone) and 10% fetal bovine serum (#SH30071.03 HyClone). Cells were maintained in a humidified incubator at 37° C. in 5% CO2.
IDO activity was assessed as a function of kynurenine production as follows: HeLa cells were seeded in a 96-well culture plate at a density of 5,000 cells/well and allowed to equilibrate overnight. After 24 hours, the media was aspirated and replaced with media containing IFNγ (#285-IF/CF, R&D Systems) at a final concentration of 25 ng/mL. A serial dilution of each test compound was added to the cells in a total volume of 200 μL of culture medium. After a further 48 hour incubation, 170 μL of supernatant was transferred from each well to a fresh 96-well plate. 12.1 μL of 6.1N trichloroacetic acid (#T0699, Sigma-Aldrich) was added to each well and mixed, followed by incubation at 65° C. for 20 minutes to hydrolyze N-formylkynurenine, the product of indoleamine 2,3-dioxygenase, to kynurenine. The reaction mixture was then centrifuged for 10 mins at 500×g to sediment the precipitate. 100 μL of the supernatant was transferred from each well to a fresh 96-well plate. 100 μl of 2% (w/v) p-dimethylaminobenzaldehyde (#15647-7, Sigma-Aldrich) in acetic acid (#A6283, Sigma-Aldrich) was added to each well mixed and incubated at room temperature for 20 inns. Kynurenine concentrations were determined by measuring absorbance at 480 nm and calibrating against an L-kynurenine (#K8625, Sigma-Aldrich) standard curve using a SPECTRAMAX® M2e microplate reader (Molecular Devices). The percentage activity at each inhibitor concentration was determined and IC50 values assessed using nonlinear regression.

human IDO1 = target: T2, human IDO1 (Homo sapiens, UniProt P14902); experiment: human IDO1/HEK293 cell IDO inhibition assay; type: cell-based; settings: HEK293 cells stably expressing human IDO1, 20 hours incubation, absorbance at 490 nm; read-out: IDO1 HEK Human IC50
T2 construct: expressed in transfected cells
Procedure: HEK293 cells were transfected with a pCDNA-based mammalian expression vector harboring human IDO1 cDNA (NM 002164.2) by electroporation. They were cultured in medium (DMEM with 10% FBS) containing 1 mg/ml G418 for two weeks. Clones of HEK293 cells that stably expressed human IDO1 protein were selected and expanded for IDO inhibition assay.
The human IDO1/HEK293 cells were seeded at 10,000 cells per 50 μL per well with RPMI/phenol red free media contains 10% FBS in a 384-well black wall clear bottom tissue culture plate (Matrix Technologies LLC) 100 nL of certain concentration of compound was then added to each well using ECHO liquid handling systems. The cells were incubated for 20 hours in 37° C. incubator with 5% CO2.
The compound treatments were stopped by adding trichloroacetic acid (Sigma-Aldrich) to a final concentration at 0.2%. The cell plate was further incubated at 50° C. for 30 minute. The equal volume supernatant (20 μL) and 0.2% (w/v) Ehrlich reagent (4-dimethylaminobenzaldehyde, Sigma-Aldrich) in glacial acetic acid were mixed in a new clear bottom 384-well plate. This plate was then incubated at room temperature for 30 minute. The absorbance at 490 nm was measured on Envision plate reader.
Compound IC50 values were calculated using the counts of 500 nM of a reference standard treatment as one hundred percent inhibition, and counts of no compound but DMSO treatment as zero percent inhibition.

T2 sequence (P14902 whole entry): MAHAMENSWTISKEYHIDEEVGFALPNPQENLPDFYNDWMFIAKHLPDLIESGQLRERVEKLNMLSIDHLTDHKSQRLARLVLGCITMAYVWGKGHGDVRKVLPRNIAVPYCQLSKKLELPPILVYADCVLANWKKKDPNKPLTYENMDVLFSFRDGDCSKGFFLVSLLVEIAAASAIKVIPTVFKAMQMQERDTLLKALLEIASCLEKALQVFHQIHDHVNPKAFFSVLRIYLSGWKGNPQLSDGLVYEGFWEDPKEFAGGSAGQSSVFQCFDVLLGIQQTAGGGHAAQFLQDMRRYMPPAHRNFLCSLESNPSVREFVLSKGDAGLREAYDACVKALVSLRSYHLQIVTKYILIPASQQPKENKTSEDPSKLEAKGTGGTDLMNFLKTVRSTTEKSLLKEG
T1 sequence (P14902 whole entry): as above

Structure (SMILES)	pIC50 [1]	pIC50 (human IDO1)
CC(C(=O)NC12CC3CC(CC(C3)C1)C2)[C@H]1CC[C@]2(CC1)OCc1ccccc12 (mixture of isomers) [Example 6, rac-N-((1R,3S)-Adamantan-1-yl)-2-((1S,4s)-3′H-spiro[cyclohexane-1,1′-isobenzofuran]-4-yl)propanamide]	5.89	
CC(NC(=O)C12CC3CC(CC(C3)C1)C2)[C@H]1CC[C@]2(CC1)OCc1ccccc12 (mixture of isomers) [Example 12, rac-(1R,3S)—N-(1-((1S,4s)-3′H-spiro[cyclohexane-1,1′-isobenzofuran]-4-yl)ethyl)adamantane-1-carboxamide]	5.84	
CC(NC(=O)C12CCC(Cl)(CC1)CC2)[C@H]1CC[C@]2(CC1)OCc1ccccc12 (mixture of isomers) [Example 13, rac-N-(1-((1s,4s)-3′H-Spiro[cyclohexane-1,1′-isobenzofuran]-4-yl)ethyl)-4-chlorobicyclo[2.2.2]octane-1-carboxamide]	6.20	
CC(C(=O)NC12CC3CC(CC(C3)C1)C2)[C@H]1CC[C@@]2(CC1)OCc1ccccc12 (mixture of isomers) [Example 28, rac-N—((1R,3S)-Adamantan-1-yl)-2-((1R,4r)-3′H-spiro[cyclohexane-1,1′-isobenzofuran]-4-yl)propanamide]	6.70	
O=C(C[C@H]1CC[C@@]2(CC1)OCc1ccccc12)NC12CC3CC(CC(C3)C1)C2 [Example 2, N-((1R,3S)-Adamantan-1-yl)-2-((1R,4r)-3′H-spiro[cyclohexane-1,1′-isobenzofuran]-4-yl)acetamide]	6.72	
O=C(C[C@H]1CC[C@]2(CC1)OCc1ccccc12)Nc1ccc(Cl)cc1 [Example 3, N-(4-Chlorophenyl)-2-((1s,4s)-3′H-spiro[cyclohexane-1,1′-isobenzofuran]-4-yl)acetamide]	6.66	6.29

Stronger by pIC50 [1], values ahead:

pIC50 [1]	pIC50 (human IDO1)	Structure (SMILES)
7.30		CC(C(=O)Nc1ccc(Cl)cc1)[C@H]1CC[C@@]2(CC1)OCc1ccccc12 (mixture of isomers) [Example 4, rac-N-(4-Chlorophenyl)-2-((1r,4r)-3′H-spiro[cyclohexane-1,1′-isobenzofuran]-4-yl)propanamide]
7.04		CC(C(=O)Nc1ccc(Cl)cc1)[C@H]1CC[C@]2(CC1)OCc1ccccc12 (mixture of isomers) [Example 5, N-(4-Chlorophenyl)-2-((1s,4s)-3′H-spiro[cyclohexane-1,1′-isobenzofuran]-4-yl)propanamide]
7.35		CC(NC(=O)c1ccc(Cl)cc1)[C@H]1CC[C@]2(CC1)OCc1ccccc12 (mixture of isomers) [Example 11, rac-N-(1-((1s,4s)-3′H-spiro[cyclohexane-1,1′-isobenzofuran]-4-yl)ethyl)-4-chlorobenzamide]
6.94	7.00	O=C(C[C@H]1CC[C@@]2(CC1)OCc1ccccc12)Nc1ccc(Cl)cc1 [Example 1, N-(4-Chlorophenyl)-2-((1r,4r)-3′H-spiro[cyclohexane-1,1′-isobenzofuran]-4-yl)acetamide]
7.70	7.77	C[C@H](C(=O)Nc1ccc(Cl)cc1)[C@H]1CC[C@@]2(CC1)COc1ccccc12 [Example 15, (S)—N-(4-Chlorophenyl)-2-((1'S,4′r)-2H-spiro[benzofuran-3,1′-cyclohexan]-4′-yl)propanamide]
